Laboratory results as given in patent US20250074911A1, “MACROCYCLIC BTK INHIBITORS” (Crossfire Oncology Holding B.V., priority 2021, published 2025).
Where “and” joins values, the source holds several entries; their conditions need not be identical. Equal entries are not always repeated.

Tests used:
BTK T474I = BTK T474I (Homo sapiens (Human), UniProt Q06187, T474I); test: Binding kinetics measurements (Surface Plasmon Resonance) on BTK T474I; conditions: for Kd: binding affinity by Surface Plasmon Resonance (SPR); for Tau (h) BTK T474I (Act): target residence time, SPR
Summary of the method: (§1)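 Constants come from single-cycle kinetics: five rising compound injections (3.16-316 nM) at 30 μl/min and 22° C over streptavidin-captured BTK (wild type or mutant), running buffer containing 1% DMSO. Double referencing applied; induced-fit binders fitted to a two-state model; duplicates geometrically averaged; residence time derived.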

[1] = target: full-length BTK C481S enzyme (Homo sapiens (Human), UniProt Q06187, C481S); test: Biochemical kinase assay BTK C481S (IMAP)
Summary of the method: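 IC50 values come from IMAP fluorescence polarization after quenching with progressive binding solution. The reaction ran 2 h at room temperature in the dark with 1.2 nM full-length C481S enzyme, 7 μM ATP and 50 nM fluorescein-labelled MBP-derived peptide, following a 1 h dark pre-incubation of compound with enzyme.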

BTK T316A = BTK T316A (Homo sapiens (Human), UniProt Q06187, T316A); test: Binding kinetics measurements (Surface Plasmon Resonance) on BTK T316A; conditions: for Kd: binding affinity by Surface Plasmon Resonance (SPR); for Tau (h) BTK T316A (Act): target residence time, SPR
Description: (§2) Binding kinetics measurements on wt-BTK, BTK […], BTK […], BTK […] and BTK […] (Surface Plasmon Resonance) Streptavidin-coated chips (Cat. No. BR100531), disposables and maintenance kits for Biacore were purchased from Cytiva (Eindhoven, The Netherlands). […] Remaining streptavidin was blocked with biocytin. Immobilization was performed at 4° C. Subsequent assay steps were conducted at 22° C. After changing buffer to Biacore buffer with 1% (v/v) dimethylsulfoxide (DMSO), a pre-run was performed for a period of at least 30 min at a flow rate of 30 μl/min to obtain a stable surface. The kinetic constants of the compounds were determined with single cycle kinetics with five consecutive injections with an increasing compound concentration with ranges of 3.16-316 nM. […] To circumvent problems of mass transport limitation, a flow rate of 30 μl/min was used. A blank run with the same conditions was performed before the compound was injected. The SPR sensorgrams were analyzed with Biacore Evaluation Software by using a method of double referencing. First the reference channel was subtracted from the channel containing immobilized protein. Subsequently, the reference curve obtained with buffer injections was subtracted. […] Compounds that bound according to an induced fit model were fitted with a two-state reaction model. The kinetic constants (ka, […], KD) of duplicates were geometrically averaged. […] Target residence for an induced fit model was calculated as described (Tummino and Copeland, 2008).

REC-1 T474I cell lines = test: Cell proliferation assay REC-1 BTK T474I knock-in cells (ATPlite, 72 hours); type: cell-based; conditions: Homo sapiens, Rec1; 72 hours; read-out: IC50 REC-1 T474I
Summary of the method: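 REC-1 cells carrying CRISPR knock-in mutant BTK, single-cell cloned and sequence-confirmed, were exposed to compound for 72 h and read by ATPlite luminescence. Percentage growth was calculated against the signal at the start of incubation and against untreated 0.3% DMSO wells as maximum growth.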

[2] = test system: wt-REC-1 mantle cell lymphoma cells; test: Cell proliferation assay wt-REC-1 (ATPlite, 72 hours); type: cell-based; conditions: 72 h; read-out: IC50 wt-REC-1
Summary of the method: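 Luminescent viability read over 72 h, start-of-incubation signal recorded separately to separate growth from cell death. Percentage growth referenced to compound-free 0.3% DMSO wells; IC50 from 4-parameter logistic fit.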

[3] = test system: wt-TMD8 diffuse large B-cell lymphoma cells; test: Cell proliferation assay wt-TMD8 (ATPlite, 120 hours); type: cell-based; conditions: B-cell; wt-TMD8 cells, 120 hours, ATPlite; read-out: IC50 wt-TMD8
Summary of the method: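 Readout is percentage growth from ATPlite 1Step luminescence after 5 days (120 h) compound treatment of wt-TMD8 lymphoma cells (1600/well, RPMI-1640 + 10% FBS). Time-zero signal separates growth inhibition from cell kill; 0.3% DMSO wells without compound define maximal growth.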

[4] = target: full-length wt-BTK enzyme (Homo sapiens (Human), UniProt Q06187); test: Biochemical kinase assay wt-BTK (IMAP)
Summary of the method: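 Compound and enzyme (final 1.2 nM) were pre-incubated for 1 h at RT, after which the reaction was started with 4 μM ATP plus 50 nM fluorescein-MBP substrate peptide. After 2 h in the dark, the IMAP progressive binding reagent stopped the reaction, and phosphorylation was read by fluorescence polarization.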

wt-BTK = wt-BTK (Homo sapiens (Human), UniProt Q06187); test: Binding kinetics measurements (Surface Plasmon Resonance) on wt-BTK; conditions: for Kd: binding affinity by Surface Plasmon Resonance (SPR); for Tau (h) wt-BTK (Act): target residence time, SPR
Summary of the method: as §1

BTK T474S = BTK T474S (Homo sapiens (Human), UniProt Q06187, T474S); test: Binding kinetics measurements (Surface Plasmon Resonance) on BTK T474S; conditions: for residence time: SPR binding kinetics, BTK T474S, read-out: Tau (h) BTK T474S (Act), target residence time (converted); for Kd: binding affinity by Surface Plasmon Resonance (SPR)
Description: as §2

BTK C481S = BTK C481S (Homo sapiens (Human), UniProt Q06187, C481S); test: Binding kinetics measurements (Surface Plasmon Resonance) on BTK C481S; conditions: for Kd: binding affinity by Surface Plasmon Resonance (SPR); for Tau (h) BTK C418S (Act): target residence time for BTK C481S, SPR
Description: as §2

Sequence of BTK T474S (Q06187 whole entry T474S): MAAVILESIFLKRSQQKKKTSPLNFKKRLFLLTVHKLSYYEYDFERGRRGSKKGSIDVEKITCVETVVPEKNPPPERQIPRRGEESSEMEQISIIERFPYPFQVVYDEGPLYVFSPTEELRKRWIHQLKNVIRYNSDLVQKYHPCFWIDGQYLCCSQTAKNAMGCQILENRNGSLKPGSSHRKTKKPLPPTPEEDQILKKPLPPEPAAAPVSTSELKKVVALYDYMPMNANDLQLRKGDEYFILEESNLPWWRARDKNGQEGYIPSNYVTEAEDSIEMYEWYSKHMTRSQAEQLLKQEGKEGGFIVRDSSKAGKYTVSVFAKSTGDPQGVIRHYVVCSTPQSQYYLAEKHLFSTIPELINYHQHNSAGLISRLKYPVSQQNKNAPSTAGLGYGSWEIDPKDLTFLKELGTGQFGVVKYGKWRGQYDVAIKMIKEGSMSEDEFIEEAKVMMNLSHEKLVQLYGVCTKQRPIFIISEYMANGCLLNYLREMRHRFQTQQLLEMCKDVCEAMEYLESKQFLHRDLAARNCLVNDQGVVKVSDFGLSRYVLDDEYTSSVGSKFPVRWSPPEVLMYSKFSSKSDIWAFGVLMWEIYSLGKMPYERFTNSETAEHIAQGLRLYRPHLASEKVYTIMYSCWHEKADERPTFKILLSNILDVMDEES
Sequence of BTK T316A (Q06187 whole entry T316A): as the sequence (Q06187 whole entry T474S) above, with T316A, S474T counted along it
Sequence of BTK T474I (Q06187 whole entry T474I): as the sequence (Q06187 whole entry T474S) above, with S474I counted along it
Sequence of BTK C481S (Q06187 whole entry C481S): as the sequence (Q06187 whole entry T474S) above, with S474T, C481S counted along it
Sequence of full-length BTK C481S enzyme (Q06187 whole entry C481S): as the sequence (Q06187 whole entry T474S) above, with S474T, C481S counted along it
Sequence of wt-BTK (Q06187 whole entry): as the sequence (Q06187 whole entry T474S) above, with S474T counted along it
Sequence of full-length wt-BTK enzyme (Q06187 whole entry): as the sequence (Q06187 whole entry T474S) above, with S474T counted along it

SMILES	Kd (BTK T474I)	Tau (h) BTK T474I (Act) (BTK T474I) [h]	IC50 [1] [nM]	Kd (BTK T316A) [nM]	Tau (h) BTK T316A (Act) (BTK T316A) [h]	IC50 (REC-1 T474I cell lines) [nM]	IC50 [2] [nM]	IC50 [3] [nM]	IC50 [4] [nM]	Kd (wt-BTK) [nM]	Tau (h) wt-BTK (Act) (wt-BTK) [h]	residence time (BTK T474S) [h]	Kd (BTK C481S) [nM]	Tau (h) BTK C418S (Act) (BTK C481S) [h]	Kd (BTK T474S) [nM]
Nc1ncc2c3c1c(-c1ccc(C(=O)Nc4cc(C(F)(F)F)ccn4)cc1)nn3[C@@H]1CCC[C@H](C1)C(=O)NCCCCC/C=C/2 [Example 2]	< 2 nM	3.61	< 5	< 5	16.05	< 100	< 100	< 100	< 5	< 5	4.47				
C[C@@H]1CC(=O)N[C@@H]2CCC[C@H](C2)c2nc(-c3ccc(C(=O)Nc4cc(C(F)(F)F)ccn4)cc3)c3c(N)ncc(n23)/C=C/CCN1 [Example 179]	< 2 nM	1.14	< 5			100 to 500	< 100	< 100	< 5		7.36	3.01	< 5	4.06	
N#Cc1ccnc(NC(=O)c2ccc(-c3nn4c5c(cnc(N)c35)/C=C/COCCC(=O)N[C@@H]3CC[C@@H]4C3)cc2)c1 [Example 183]		>24	< 5			< 100	< 100	< 100	< 5		>24	> 24	< 5	4.15	< 5
C[C@H]1CC(=O)N[C@@H]2CCC[C@H](C2)n2nc(-c3ccc(C(=O)Nc4cc(C(F)(F)F)ccn4)cc3)c3c(N)ncc(c32)/C=C/CCO1 [Example 156]	10 to 50 nM and < 5 nM		< 5		1.05	< 100	< 100	< 100	< 5			1.06			< 3
Nc1ncc2c3c1c(-c1ccc(C(=O)Nc4cc(C(F)(F)F)ccn4)cc1)nn3[C@@H]1CCC[C@H](C1)C(=O)NCCCCC/C=C\C2 [Example 89b]	10 to 50 nM and < 5 nM	0.64	< 5	< 5	3.12		< 100		< 5				< 5	6.69	
N#Cc1ccnc(NC(=O)c2ccc(-c3nn4c5c(cnc(N)c35)/C=C/CCN3CC[C@H]3C(=O)N[C@@H]3CCC[C@@H]4C3)cc2)c1 [Example 165]			< 5		6.98	< 100	< 100	< 100	< 5		3.24			1.61	
C[C@@H]1CC(=O)N[C@@H]2CCC[C@H](C2)n2nc(-c3ccc(C(=O)Nc4cc(C#N)ccn4)cc3)c3c(N)ncc(c32)/C=C/CCN1 [Example 180]	< 2 nM	1.16	< 5			100 to 500	< 100	< 100	< 5		7.42	7.27			
N#Cc1ccnc(NC(=O)c2ccc(-c3nn4c5c(cnc(N)c35)/C=C/CCCCCC(=O)N[C@@H]3CC[C@@H]4C3)cc2)c1 [Example 182]		1.07	< 5			< 100	< 100	< 100	< 5		2.96	1.03			
Nc1ncc2c3c1c(-c1ccc(C(=O)Nc4cc(C(F)(F)F)ccn4)cc1)nn3[C@@H]1CC[C@H](C1)NC(=O)[C@@H]1CCN1CC/C=C/2 [Example 174]		0.77	< 5		4.98	< 100	< 100	< 100	< 5		1.35		< 5	3.56	
Nc1ncc2c3c1c(-c1ccc(C(=O)Nc4cc(C(F)(F)F)ccn4)cc1)nn3[C@@H]1CCC[C@H](C1)C(=O)NCCCC/C=C/2 [Example 1]	< 2 nM	0.92	< 5	< 5	2.99	< 100	< 100	< 100	< 5	< 5	8.77		< 5	1.24	
COc1ccc(F)cc1C(=O)NCc1ccc(-c2nn3c4c(cnc(N)c24)/C=C/CCCCCC(=O)N[C@@H]2CCC[C@@H]3C2)cc1 [Example 187]		2.13	< 5			100 to 500	< 100	< 100	< 5		18.83	13.6			< 5
COc1ccc(F)cc1C(=O)NCc1ccc(-c2nn3c4c(cnc(N)c24)/C=C/COCC(=O)N[C@@H]2CCC[C@@H]3C2)cc1 [Example 52]	10 to 50 nM and < 5 nM		< 5			500 to 10000	100 to 1000	< 100	< 5	< 5		1.35			< 3
